Measured values: patent US20050250801A1, “Method of treating cancer with azaspirane compositions” (priority 2003, published 2005)
Like-named read-outs stand apart in the source and are kept apart here.

Key:
Type in all cases: cell-based
T84 cells = assay: Inhibition of T84 colon carcinoma cell proliferation (WST-1, Example 1); settings: Homo sapiens, 24 hours incubation
Experimental: The effect of N,N,-diethyl-8,8-dipropyl-2-azaspiro[4,5]decane-2-propanamine dimaleate (Compound 1) on proliferation of human colon carcinoma cells T84 and CaCo-2 was evaluated in the following manner. Cell proliferation was measured by WST-1 dye conversion to Formazan assay using the proliferation kit from BioVision, CA. The procedure used was essentially as described in the manufacture's instructions. Briefly, cells were grown for 7 days until they formed semi-confluent monolayers. On day 7, cells were trypsinized and resuspended in 96-well plates at a concentration of approximately 40,000 cells/well and allowed to grow for 24 hours at 37° C.
Subsequently, fresh media containing increasing concentrations of Compound 1, as indicated in the FIG. 1, were added and assay plates were further incubated for an additional period of 24 hours. A solution of 5 μl of WST-1 dye per well was added and plates were read after 4 hours at 440 and 600 nm using an ELISA plate reader. The absorbance at 440 minus that at 600 nm is directly proportion to the number of proliferating cells. All samples were measured in triplicate and results were expressed as an average of three determinations.

HUVEC cells = assay: Inhibition of HUVEC proliferation (WST-1, Example 2); settings: Homo sapiens
HUVEC = HUVEC cell migration assay (Boyden chamber); settings: Homo sapiens, 5 hours incubation, read-out: IC50 Concentration, Migration
Experimental: Migration is assessed using the 48-well Boyden chamber and 8 μm pore size collagen-coated (10 μg/ml rat tail collagen; Collaborative Laboratories) polycarbonate filters (Osmonics, Inc.). The bottom chamber wells receive 27-29 μl of Dulbecco's Modified Eagle Medium (“DMEM”) alone (baseline) or medium containing chemo-attractant (bFGF, VEGF or […] cell conditioned medium). The top chambers receive 45 μl of a HUVEC cell suspension (1×10^6 cells/ml) prepared in DMEM+1% Bovine Serum Albumin (“BSA”) with or without test compound. After 5 hours incubation at 37° C. the membrane is rinsed in Phosphate Buffer Saline (“PBS”), fixed and stained in Diff-Quick solutions. The filter is placed on a glass slide with the migrated cells facing down and cells on top are removed using a Kimwipe. The testing is performed in 4-6 replicates and five fields are counted from each well. Negative unstimulated control values are subtracted from stimulated control and drug treated values and data is plotted as mean migrated cell±Standard Deviation.

KM12 = assay: NCI in vitro SRB assay, Colon Cancer; settings: for CC50 / GI50: Homo sapiens
Experimental: (§1) An in vitro assay which tested the ability of N,N,-diethyl-8,8-dipropyl-2-azaspiro[4,5]decane-2-propanamine dimaleate (Compound 1) to inhibit the growth of known cancer cell lines was performed by the National Cancer Institute in accordance with standard procedures. See: Lin, Z. X., Hoult, J. R., and Raman, A. Sulphorhodamine B assay for measuring proliferation of a pigmented melanocyte cell line and its application to the evaluation of crude drugs used in the treatment of vitiligo. J Ethnopharmacol. 66: 141-150, 1999. Briefly, selected tumor cell lines were cultured in media containing five different concentrations of Compound 1. After 48 hours of continuous exposure, a sulforhodamine B (SRB) assay was used to estimate cell viability or growth via optical measurements.
(§2) From the measurements, the following values were determined: 1) the concentration of Compound 1 at which a tumor cell growth inhibition of 50% (relative to control) occurs (GI50), 2) the concentration of Compound 1 at which no growth occurs (total growth inhibition, TGI), and 3) the concentration of Compound 1 at which the […] (LC 50). […] FIG. 6 illustrates, graphically, tumor cell growth as a function of Compound 1 concentration of the scanned tumor cell lines.

SF-268 = assay: NCI in vitro SRB assay, CNS Cancer; settings: for CC50 / GI50: Homo sapiens
Experimental: as §1, §2

SF-295 = assay: NCI in vitro SRB assay, CNS Cancer; settings: for CC50 / GI50: Homo sapiens
Experimental: as §1, §2

SF-539 = assay: NCI in vitro SRB assay, CNS Cancer; settings: for GI50: Homo sapiens
Experimental: as §1, §2

U251 = assay: NCI in vitro SRB assay, CNS Cancer; settings: for CC50 / GI50: Homo sapiens; for GI50: U-251
Experimental: as §1, §2

[1] = SF-268, Log10 conc -4.0 Moles/L
[2] = SF-268, Log10 conc -5.0 Moles/L
[3] = SF-268, Log10 conc -6.0 Moles/L
[4] = SF-268, Log10 conc -7.0 Moles/L
[5] = SF-268, Log10 conc -8.0 Moles/L
[6] = SF-295, Log10 conc -4.0 Moles/L
[7] = SF-295, Log10 conc -5.0 Moles/L
[8] = SF-295, Log10 conc -6.0 Moles/L
[9] = SF-295, Log10 conc -7.0 Moles/L
[10] = SF-295, Log10 conc -8.0 Moles/L

Compound: CCCC1(CCC)CCC2(CCN(CCCN(CC)CC)C2)CC1.O=C(O)/C=C\C(=O)O.O=C(O)/C=C\C(=O)O [Compound 1, N,N,-diethyl-8,8-dipropyl-2-azaspiro[4,5]decane-2-propanamine dimaleate]
- IC50 (T84 cells): 625 to 1250 nM
- IC50 (HUVEC cells): 1250 to 2500 nM
- IC50 (HUVEC): 530 nM
- CC50 (KM12; KM12, read-out: LC50): 7.13 µM
- CC50 (KM12; KM12, read-out: Log10 LC50 (converted)): 7.08 µM
- GI50 (KM12; KM12, read-out: GI50): 1510 nM
- GI50 (KM12; KM12, read-out: Log10 GI50 (converted)): 1510 nM
- Log10 TGI (KM12; KM12): −5.48
- TGI (KM12; KM12): 3.29 µM
- Mean Optical Densities (KM12; KM12, Log10 conc -4.0 Moles/L): 0.210
- Percent Growth (KM12; KM12, Log10 conc -4.0 Moles/L): −52%
- Mean Optical Densities (KM12; KM12, Log10 conc -5.0 Moles/L): 0.123
- Percent Growth (KM12; KM12, Log10 conc -5.0 Moles/L): −72%
- Mean Optical Densities (KM12; KM12, Log10 conc -6.0 Moles/L): 1.243
- Percent Growth (KM12; KM12, Log10 conc -6.0 Moles/L): 77%
- Mean Optical Densities (KM12; KM12, Log10 conc -7.0 Moles/L): 1.402
- Percent Growth (KM12; KM12, Log10 conc -7.0 Moles/L): 92%
- Mean Optical Densities (KM12; KM12, Log10 conc -8.0 Moles/L): 1.429
- Percent Growth (KM12; KM12, Log10 conc -8.0 Moles/L): 94%
- CC50 (SF-268; SF-268, read-out: LC50): 5.8 µM
- CC50 (SF-268; SF-268, read-out: Log10 LC50 (converted)): 5.75 µM
- GI50 (SF-268; SF-268, read-out: GI50): 1430 nM
- GI50 (SF-268; SF-268, read-out: Log10 GI50 (converted)): 1450 nM
- Log10 TGI (SF-268; SF-268): −5.54
- TGI (SF-268; SF-268): 2.88 µM
- Mean Optical Densities (SF-268; [1]): 0.058
- Percent Growth (SF-268; [1]): −80%
- Mean Optical Densities (SF-268; [2]): 0.033
- Percent Growth (SF-268; [2]): −89%
- Mean Optical Densities (SF-268; [3]): 1.004
- Percent Growth (SF-268; [3]): 75%
- Mean Optical Densities (SF-268; [4]): 1.181
- Percent Growth (SF-268; [4]): 94%
- Mean Optical Densities (SF-268; [5]): 1.193
- Percent Growth (SF-268; [5]): 95%
- CC50 (SF-295; SF-295, read-out: LC50): 8.21 µM
- CC50 (SF-295; SF-295, read-out: Log10 LC50 (converted)): 8.13 µM
- GI50 (SF-295; SF-295, read-out: GI50): 1930 nM
- GI50 (SF-295; SF-295, read-out: Log10 GI50 (converted)): 1950 nM
- Log10 TGI (SF-295; SF-295): −5.40
- TGI (SF-295; SF-295): 3.98 µM
- Mean Optical Densities (SF-295; [6]): 0.239
- Percent Growth (SF-295; [6]): −57%
- Mean Optical Densities (SF-295; [7]): 0.202
- Percent Growth (SF-295; [7]): −64%
- Mean Optical Densities (SF-295; [8]): 1.520
- Percent Growth (SF-295; [8]): 96%
- Mean Optical Densities (SF-295; [9]): 1.653
- Percent Growth (SF-295; [9]): 109%
- Mean Optical Densities (SF-295; [10]): 1.614
- Percent Growth (SF-295; [10]): 105%
- Log10 TGI (SF-539): −5.50
- TGI (SF-539): 3.13 µM
- GI50 (SF-539; read-out: GI50): 1570 nM
- GI50 (SF-539; read-out: Log10 GI50 (converted)): 1580 nM
- Mean Optical Densities (SF-539; Log10 conc -4.0 Moles/L): 0.033
- Percent Growth (SF-539; Log10 conc -4.0 Moles/L): −89%
- Mean Optical Densities (SF-539; Log10 conc -5.0 Moles/L): 0.050
- Percent Growth (SF-539; Log10 conc -5.0 Moles/L): −84%
- Mean Optical Densities (SF-539; Log10 conc -6.0 Moles/L): 0.559
- Percent Growth (SF-539; Log10 conc -6.0 Moles/L): 83%
- Mean Optical Densities (SF-539; Log10 conc -7.0 Moles/L): 0.612
- Percent Growth (SF-539; Log10 conc -7.0 Moles/L): 100%
- Mean Optical Densities (SF-539; Log10 conc -8.0 Moles/L): 0.591
- Percent Growth (SF-539; Log10 conc -8.0 Moles/L): 93%
- CC50 (U251; U-251, read-out: LC50): 4.69 µM
- CC50 (U251; U-251, read-out: Log10 LC50 (converted)): 4.68 µM
- GI50 (U251; U251, read-out: GI50): 1030 nM
- GI50 (U251; U251, read-out: Log10 GI50 (converted)): 1020 nM
- Log10 TGI (U251; U251): −5.66
- TGI (U251; U251): 2.2 µM
- Mean Optical Densities (U251; U251, Log10 conc -4.0 Moles/L): −0.042
- Percent Growth (U251; U251, Log10 conc -4.0 Moles/L): −100%
- Mean Optical Densities (U251; U251, Log10 conc -5.0 Moles/L): −0.049
- Percent Growth (U251; U251, Log10 conc -5.0 Moles/L): −100%
- Mean Optical Densities (U251; U251, Log10 conc -6.0 Moles/L): 0.602
- Percent Growth (U251; U251, Log10 conc -6.0 Moles/L): 52%
- Mean Optical Densities (U251; U251, Log10 conc -7.0 Moles/L): 0.864
- Percent Growth (U251; U251, Log10 conc -7.0 Moles/L): 88%
- Mean Optical Densities (U251; U251, Log10 conc -8.0 Moles/L): 0.885
- Percent Growth (U251; U251, Log10 conc -8.0 Moles/L): 90%
